Source: US20160317525A1 (Teva Pharmaceutical Industries, Ltd., priority 2013, published 2016)

Key:
MOG induced EAE = assay: Laquinimod combined with teriflunomide in MOG induced EAE (Example 2); type: in vivo, mice of the C57BL/6 strain; settings: Day 1-30; for GMS: group mean score; for MMS: mean maximal score; for % inhibition (GMS) / % inhibition (Incidence) / % inhibition (MMS): vs vehicle
[1] = tested on: experimental autoimmune encephalomyelitis; settings: in mice; Merill et al., 2009; cited from earlier work
[2] = 7 mg/day and 14 mg/day; O'Connor et al. 2011; cited from earlier work
[3] = animal studies; cited from earlier work
CYP2C9 = CYP2C9 (Homo sapiens, UniProt P11712); settings: O'Connor et al. 2006 and Warneke et al. 2009; cited from earlier work
Chain of CYP2C9 (P11712 whole entry): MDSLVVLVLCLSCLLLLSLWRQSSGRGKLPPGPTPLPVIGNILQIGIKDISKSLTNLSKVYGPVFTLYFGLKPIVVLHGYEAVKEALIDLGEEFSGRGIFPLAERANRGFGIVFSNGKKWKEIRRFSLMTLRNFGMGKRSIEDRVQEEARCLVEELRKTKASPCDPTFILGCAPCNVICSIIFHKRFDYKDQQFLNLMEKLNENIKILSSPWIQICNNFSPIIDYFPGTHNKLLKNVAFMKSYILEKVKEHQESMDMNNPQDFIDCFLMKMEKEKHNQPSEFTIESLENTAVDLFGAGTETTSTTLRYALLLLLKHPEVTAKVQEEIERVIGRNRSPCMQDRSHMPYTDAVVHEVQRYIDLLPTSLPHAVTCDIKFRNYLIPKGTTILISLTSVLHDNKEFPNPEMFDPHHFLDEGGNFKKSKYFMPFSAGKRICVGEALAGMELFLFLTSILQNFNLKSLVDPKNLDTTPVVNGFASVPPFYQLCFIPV

Q: What does the source list for `CCN(C(=O)c1c(O)c2c(Cl)cccc2n(C)c1=O)c1ccccc1` [Laquinimod, 5-chloro-N-ethyl-4-hydroxy-1-methyl-2-oxo-N-phenyl-1,2-dihydroquinoline-3-carboxamide]?
A: Duration (MOG induced EAE; Laquinimod 5 mg/kg/day gavage): 5.7 ± 5.1 days; Incidence (MOG induced EAE; Laquinimod 5 mg/kg/day gavage): 9/15; Mortality (MOG induced EAE; Laquinimod 5 mg/kg/day gavage): 0/15; Onset (MOG induced EAE; Laquinimod 5 mg/kg/day gavage): 20.5 ± 6.6 days; Duration (MOG induced EAE; Laquinimod 25 mg/kg/day gavage): 1.3 ± 3.5 days; Incidence (MOG induced EAE; Laquinimod 25 mg/kg/day gavage): 2/15; Mortality (MOG induced EAE; Laquinimod 25 mg/kg/day gavage): 0/15; Onset (MOG induced EAE; Laquinimod 25 mg/kg/day gavage): 26.3 ± 4.4 days; GMS (MOG induced EAE; Laquinimod 5 mg/kg/day gavage): 1.02 ± 1.01; GMS (MOG induced EAE; Laquinimod 25 mg/kg/day gavage): 0.18 ± 0.52; MMS (MOG induced EAE; Laquinimod 5 mg/kg/day gavage): 1.9 ± 1.8; MMS (MOG induced EAE; Laquinimod 25 mg/kg/day gavage): 0.4 ± 1.1; % inhibition (GMS) (MOG induced EAE; Laquinimod 5 mg/kg/day gavage): 58.4%; % inhibition (Incidence) (MOG induced EAE; Laquinimod 5 mg/kg/day gavage): 35.7%; % inhibition (MMS) (MOG induced EAE; Laquinimod 5 mg/kg/day gavage): 45.7%; % inhibition (GMS) (MOG induced EAE; Laquinimod 25 mg/kg/day gavage): 92.7%; % inhibition (Incidence) (MOG induced EAE; Laquinimod 25 mg/kg/day gavage): 85.7%; % inhibition (MMS) (MOG induced EAE; Laquinimod 25 mg/kg/day gavage): 88.6%

Q: With `C/C(O)=C(\C#N)C(=O)Nc1ccc(C(F)(F)F)cc1` [Teriflunomide, (2Z)-2-cyano-3-hydroxy-N-[4-(trifluoromethyl)phenyl]but-2-enamide] as the compound, how does the minimal effective dose [1] read?
A: 3 mg/kg

Q: What about the “annualized relapse rate versus the placebo” value [2] of the same compound?
A: reduce the annualized relapse rate

Q: And the “Duration” value (MOG induced EAE; Teriflunomide 3 mg/kg gavage)?
A: 11.6 ± 2.3 days

Q: And the Incidence (MOG induced EAE; Teriflunomide 3 mg/kg gavage)?
A: 15/15

Q: And the Mortality (MOG induced EAE; Teriflunomide 3 mg/kg gavage)?
A: 0/15

Q: What about the “Onset” value (MOG induced EAE; Teriflunomide 3 mg/kg gavage) of the same compound?
A: 14.0 ± 1.5 days

Q: And the “Duration” value (MOG induced EAE; Teriflunomide 10 mg/kg gavage)?
A: 7.5 ± 5.5 days

Q: And the Incidence (MOG induced EAE; Teriflunomide 10 mg/kg gavage)?
A: 12/15

Q: And the Mortality (MOG induced EAE; Teriflunomide 10 mg/kg gavage)?
A: 0/15

Q: What about the “Onset” value (MOG induced EAE; Teriflunomide 10 mg/kg gavage) of the same compound?
A: 18.3 ± 6.4 days

Q: And the GMS (MOG induced EAE; Teriflunomide 3 mg/kg gavage)?
A: 2.34 ± 0.65

Q: And the GMS (MOG induced EAE; Teriflunomide 10 mg/kg gavage)?
A: 1.40 ± 1.18

Q: What about the MMS (MOG induced EAE; Teriflunomide 3 mg/kg gavage) of the same compound?
A: 3.7 ± 0.6

Q: And the MMS (MOG induced EAE; Teriflunomide 10 mg/kg gavage)?
A: 2.4 ± 1.7

Q: And the “% inhibition (GMS)” value (MOG induced EAE; Teriflunomide 3 mg/kg gavage)?
A: 4.5%

Q: And the “% inhibition (GMS)” value (MOG induced EAE; Teriflunomide 10 mg/kg gavage)?
A: 42.9%

Q: And the “% inhibition (Incidence)” value (MOG induced EAE; Teriflunomide 10 mg/kg gavage)?
A: 14.3%

Q: What about the “% inhibition (MMS)” value (MOG induced EAE; Teriflunomide 10 mg/kg gavage) of the same compound?
A: 31.4%

Q: What about the teratogenicity [3] of the same compound?
A: teratogenic

Q: And the CYP2C9 inhibition (CYP2C9)?
A: inhibit CYP2C9
